“Also recorded” adds a separate entry of the source.
Columns and labels:
BKCa channel = BKCa channel (Homo sapiens, UniProt Q12791); conditions: similar assay system, same concentration (20 μM); cited from earlier work
rSlo channel [1] = molecular target: T1, rSlo channel (Rattus norvegicus, UniProt Q62976); experiment: Concentration-dependence of channel opening, compound applied to the extracellular side of membrane patches; type: cell-based; conditions: extracellular application
T1 construct: expressed in transfected cells; host or cells: Xenopus laevis oocytes
T1 sequence (Q62976 whole entry): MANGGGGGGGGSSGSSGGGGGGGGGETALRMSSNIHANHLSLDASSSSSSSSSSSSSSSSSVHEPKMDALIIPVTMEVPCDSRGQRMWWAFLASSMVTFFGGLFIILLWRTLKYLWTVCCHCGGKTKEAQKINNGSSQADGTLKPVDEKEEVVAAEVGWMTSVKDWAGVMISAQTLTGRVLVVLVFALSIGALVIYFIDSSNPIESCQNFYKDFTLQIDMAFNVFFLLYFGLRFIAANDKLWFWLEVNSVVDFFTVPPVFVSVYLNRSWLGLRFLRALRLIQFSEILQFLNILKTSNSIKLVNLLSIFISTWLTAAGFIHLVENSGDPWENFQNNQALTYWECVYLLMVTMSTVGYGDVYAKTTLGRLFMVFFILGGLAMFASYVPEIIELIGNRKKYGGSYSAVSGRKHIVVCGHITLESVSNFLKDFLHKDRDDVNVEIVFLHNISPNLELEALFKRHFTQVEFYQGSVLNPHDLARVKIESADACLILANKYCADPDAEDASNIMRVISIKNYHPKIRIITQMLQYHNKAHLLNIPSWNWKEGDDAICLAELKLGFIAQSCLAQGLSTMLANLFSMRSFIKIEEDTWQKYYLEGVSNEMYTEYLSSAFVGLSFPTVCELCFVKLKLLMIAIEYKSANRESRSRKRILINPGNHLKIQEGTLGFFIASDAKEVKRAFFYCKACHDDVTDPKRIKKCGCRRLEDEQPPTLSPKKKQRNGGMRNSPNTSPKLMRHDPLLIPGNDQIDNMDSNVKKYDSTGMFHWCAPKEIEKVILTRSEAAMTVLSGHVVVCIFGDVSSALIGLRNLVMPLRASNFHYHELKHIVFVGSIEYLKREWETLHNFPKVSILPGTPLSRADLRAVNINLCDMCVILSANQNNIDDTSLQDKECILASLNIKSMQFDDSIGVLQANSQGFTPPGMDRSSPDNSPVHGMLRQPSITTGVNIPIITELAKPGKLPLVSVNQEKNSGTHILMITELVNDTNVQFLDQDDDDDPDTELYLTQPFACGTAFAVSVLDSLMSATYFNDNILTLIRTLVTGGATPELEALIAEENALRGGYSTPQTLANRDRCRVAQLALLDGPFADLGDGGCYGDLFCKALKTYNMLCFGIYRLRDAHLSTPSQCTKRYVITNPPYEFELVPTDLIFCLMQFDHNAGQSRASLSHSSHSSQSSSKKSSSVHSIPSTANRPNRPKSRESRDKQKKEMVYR
Excerpt: FIG. 6 illustrates concentration-dependence activity of compound 8 on BKCa channel. FIG. 6A illustrates concentration-dependence activity of rSlo channel. FIG. 6B illustrates concentration-dependence activity of rSlo channel combined with human β1. FIG. 6C illustrates concentration-dependence activity of rSlo channel combined with rat β4 subunit.
(§1) We then measured the concentration-dependence of compound 8 of the present invention. […] Although we were not able to obtain a concentration of compound 8 higher than 300 μM because of its solubility in water, we noticed that compound 8-induced current increases reached plateau levels at around 100 μM. […] We also measured the effects of compound 8 using inside-out patch configuration to determine whether this compound also affects channel activity from the intracellular side. The intracellular Ca^2+ concentration was fixed at 2 μM to activate rSlo channels, and different concentrations of compound 8 were added to the intracellular side of the membrane.

[2] = Solubility in water (highest obtainable concentration); type: physicochemical; conditions: read-out: highest obtainable concentration because of solubility in water
Protocol: as §1

[3] = molecular target: T2, cloned α subunit of rat BKCa channels, rSlo (Rattus norvegicus, UniProt Q62976); experiment: Excised outside-out voltage clamp recording, fold increase of BKCa channel currents by extracellularly applied compounds; type: cell-based; conditions: extracellular treatment at 20 μM; outside-out patch, Xenopus laevis oocytes expressing rSlo
T2 construct: expressed in transfected cells; host or cells: Xenopus laevis oocytes
T2 sequence (Q62976 whole entry): as above
Protocol: FIG. 3 illustrates relative fold-increase of BKCa channel activity by extracellularly applied benzofuroindole analogues of present invention. Bar graphs represent fold increases in BKCa channel currents evoked by extracellular treatment of various compounds at 20 μM.
The biological activity of compounds 7˜23 to open BKCa channels and increase the BKCa channel currents was determined by using excised outside-out voltage clamp recording from Xenopus laevis oocytes expressing cloned α subunit of rat BKCa channels, rSlo.

rSlo channel [4] = molecular target: T1, rSlo channel; experiment: Potentiating effect on rSlo channels at various intracellular Ca2+ concentrations, outside-out patch; type: cell-based; conditions: 20 μM extracellular
Protocol: FIG. 4 illustrates potency of extracellularly applied compound 22 on rSlo channels in various intracellular Ca^2+ concentrations. Representative raw-traces were shown at different intracellular Ca^2+ concentrations. Intracellular Ca^2+ concentration was increased from Ca^2+-free (A), 0.5 μM (B), 1 μM (C) and 2 μM (D). The concentration of compound 22 was 20 μM on the extracellular side.
To investigate the potentiating effect of compound 22 on rSlo channels at various intracellular Ca^2+ concentrations, rSlo channels were activated in different concentrations of intracellular Ca^2+.
Excised outside-out patch configurations were obtained by making a gigaohm seal, rupturing the membrane pulling the pipette from oocytes. Both of the bath and pipette contained symmetrical 124 mM K^+ ions. Voltage pulses were applied to activate rSlo channel currents from −120 mV to 140 mV in 10 mV increments and intracellular Ca^2+ concentrations were used to activate rSlo channel from 0 (Ca^2+-free solution was to chelate with 5 mM EGTA) to 2 μM in intracellular side.
The representative raw-traces of rSlo channel activated by membrane voltages and intracellular Ca^2+ (FIG. 4). rSlo channel currents were recorded before and after the addition of 20 μM of compound 22.

rSlo channel [5] = molecular target: T1, rSlo channel; experiment: Concentration dependence on macroscopic rSlo channel activity expressed in Xenopus oocytes, Hill fit; type: cell-based
Protocol: FIG. 5 illustrates concentration-dependence of compound 22 on BKCa channel. Data points were fitted with Hill equation.
We performed experiments to determine the concentration dependence for the effect of compound 22 on macroscopic rSlo channel activity expressed in Xenopus oocytes.
Currents were recorded from excised outside-out patches before and after the addition of seven different concentrations of compound 22, from 0 to 300 μM. Channel activity of rSlo was elicited after patch excision with 2 μM intracellular Ca^2+ and increased rapidly with the addition of compound 22. Membrane potential was held at −120 mV and stepped to 50 mV for 50 ms. Relative current differences were determined from the currents of control activated with 2 μM of intracellular Ca^2+ and voltage at 50 mV, normalized with control currents and the obtained data points were fitter with a Hill equation (FIG. 5).

Chain of BKCa channel (Q12791 whole entry): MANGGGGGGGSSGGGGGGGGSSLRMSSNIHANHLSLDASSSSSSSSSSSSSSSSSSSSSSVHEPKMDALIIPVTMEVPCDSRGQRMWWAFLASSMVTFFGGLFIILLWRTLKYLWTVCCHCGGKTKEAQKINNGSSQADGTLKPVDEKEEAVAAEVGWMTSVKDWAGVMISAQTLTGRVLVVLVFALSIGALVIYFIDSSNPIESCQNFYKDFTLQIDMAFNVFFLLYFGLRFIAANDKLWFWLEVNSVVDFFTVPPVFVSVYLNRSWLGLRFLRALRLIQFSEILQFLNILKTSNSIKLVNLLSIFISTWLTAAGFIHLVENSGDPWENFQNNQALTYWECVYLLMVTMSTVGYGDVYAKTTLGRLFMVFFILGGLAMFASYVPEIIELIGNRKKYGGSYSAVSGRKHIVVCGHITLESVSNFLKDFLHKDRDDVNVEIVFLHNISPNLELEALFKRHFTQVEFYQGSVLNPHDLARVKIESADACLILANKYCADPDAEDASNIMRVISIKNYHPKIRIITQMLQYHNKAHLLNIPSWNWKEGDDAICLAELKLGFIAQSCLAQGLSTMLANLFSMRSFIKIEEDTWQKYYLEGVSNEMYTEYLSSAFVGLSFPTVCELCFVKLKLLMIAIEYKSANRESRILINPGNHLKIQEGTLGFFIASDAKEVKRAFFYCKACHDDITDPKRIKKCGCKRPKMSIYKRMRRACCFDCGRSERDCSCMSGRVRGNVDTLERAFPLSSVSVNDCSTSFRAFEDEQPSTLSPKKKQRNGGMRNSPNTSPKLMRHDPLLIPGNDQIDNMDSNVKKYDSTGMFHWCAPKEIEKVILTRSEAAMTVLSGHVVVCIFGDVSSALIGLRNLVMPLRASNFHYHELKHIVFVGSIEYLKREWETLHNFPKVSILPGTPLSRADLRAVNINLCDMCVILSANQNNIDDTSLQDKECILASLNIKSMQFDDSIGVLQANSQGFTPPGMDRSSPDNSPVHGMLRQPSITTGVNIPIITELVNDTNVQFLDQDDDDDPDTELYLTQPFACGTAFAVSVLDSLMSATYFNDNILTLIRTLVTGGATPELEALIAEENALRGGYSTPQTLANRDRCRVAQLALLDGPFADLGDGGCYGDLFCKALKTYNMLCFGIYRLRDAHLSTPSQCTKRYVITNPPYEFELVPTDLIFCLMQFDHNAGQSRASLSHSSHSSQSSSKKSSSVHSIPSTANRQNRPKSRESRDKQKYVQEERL

COc1ccc(Cl)cc1[C@]1(F)C(=O)Nc2cc(C(F)(F)F)ccc21 [BMS-204352]
reported fold increase (BKCa channel): around 1.5

COc1ccc(Cl)cc1-c1c(CCO)c(=O)[nH]c2ccc(C(F)(F)F)cc12 [Compound 2]
reported fold increase (BKCa channel): ~3.7

O=C(O)c1cccc2c1[nH]c1c3ccc(C(F)(F)F)cc3oc21 [Compound 8, 7-Trifluoromethyl-10H-benzo[4,5]furo[3,2-b]indole-1-carboxylic acid]
EC50 (rSlo channel [1]): 8.9 ± 1.5 µM
solubility [2]: ≤ 300 µM

FC(F)(F)c1ccc2c(c1)oc1c3ccc(Cl)c(Cl)c3[nH]c21 [Compound 18, 1,2-Dichloro-7-trifluoromethyl-10H-benzo[4,5]furo[3,2-b]indole]
fold increase of BKCa channel currents [3]: activity near to the basal level

FC(F)(F)c1ccc2c(c1)oc1c2[nH]c2cc(Cl)cc(Cl)c21 [Compound 19, 2,4-Dichloro-7-trifluoromethyl-10H-benzo[4,5]furo[3,2-b]indole]
fold increase of BKCa channel currents [3]: activity near to the basal level

O=C(O)c1ccc(Cl)c2c1[nH]c1c3ccc(C(F)(F)F)cc3oc12 [Compound 22, 4-Chloro-7-trifluoromethyl-10H-benzo[4,5]furo[3,2-b]indole-1-carboxylic acid]
fold increase of BKCa channel currents [3]: more than 6 fold
reversibility of enhanced rSlo current by washout (rSlo channel [4]; all tested intracellular Ca2+ concentrations): could be removed by washout
effect on rSlo channel current (rSlo channel [4]; intracellular Ca2+ from Ca2+-free to 2 μM): markedly significant effects on rSlo channel current; also recorded: intracellular Ca^2+ concentrations do not affect the potentiating effect
effect on rSlo current over concentration range (rSlo channel [5]; 50 nM to 300 μM): enhanced rSlo current in a concentration dependent manner
Kd (rSlo channel [5]; 2 μM intracellular Ca2+, step to 50 mV, N=5, read-out: Kd, apparent dissociation constant (Hill fit)): 4.01 ± 0.75 µM

O=C(O)c1cc(Cl)cc2c1[nH]c1c3ccc(C(F)(F)F)cc3oc21 [Compound 23, 3-Chloro-7-trifluoromethyl-10H-benzo[4,5]furo[3,2-b]indole-1-carboxylic acid]
fold increase of BKCa channel currents [3]: close but not better channel opening activity than compound 22

Reference: patent US7812177B2, “Potassium channel opener having benzofuroindole skeleton” (Anygen Co., Ltd., priority 2005, dated 2010)
